The text below walks through data of patent US7704490B2 (Institut Pasteur, priority 1998, dated 2010).

Entries after “also recorded” stand apart in the source; their conditions may differ. No end group written: not given here.

Data set [1] is described as follows: Circular dichroism, α helix content. The class given is physicochemical. Particulars: for α-helix content: isolated peptide, circular dichroism. On the technique in general: Circular dichroism is widely used to follow secondary structure.
Data set [2] relates to mAb 19B11. Briefly: ELISA inhibition of mAb 19B11 binding to IL-2 coated plates. More on the design: species or system mouse. The following applies: control mAb. A general note: An ELISA detects its analyte on a solid surface through an enzyme-linked reagent.
Data set [3] deals with IL-2R. Kind of data set: Affinity of IL-2 mutant for IL-2R. Type of data set: binding. The following applies: compared with IL-2.
Data set [4] deals with TS1β cells. Kind of data set: TS1β proliferation assay, activity of peptides and IL-2 muteins. Type of data set: cell-based, murine. Particulars: for proliferation of TS1β induced by the peptide: in the absence of IL-2. As to the method: Background of 1.4×10^3 cpm was subtracted. […] TS1β target cells are derived from TS1 murine cells (which only express murine IL-2Rγ), after transfection with the human IL-2Rβ gene.
The response to. IL-2 or peptide alone was substracted from that obtained from both IL-2 and peptide.
The biological activity of IL2 mutant Asp 20→Lys (□) is shown for comparison
TS1β cells were cultured (10^4 cells/well) in 96 wells in flat-bottomed microtiter plates with a final volume of 0.2 ml. […] In order to test the inhibitory effect of mAbs, different concentrations of these reagents were mixed in the culture wells with the respective lymphokines for 30 min at low temperature before adding the cells. […] Cultures were pulsed with 0.5 μCi/well of (3H) TdR after 36 h of incubation and harvested 15 h later.

Data set [5] has as its system K562 or Daudi target cells. Kind of data set: Induction of LAK cells, 51Cr release lysis. Type of data set: cell-based, human. Particulars: for induction of LAK cells: PBMCs stimulated 3 or 6 days, lysis of K562 and Daudi targets. Here is the method: K562 or Daudi target cells (5×103 in 0.1 ml) labeled with Na2^51CrO4 (Amersham Pharmacia Biotech) were mixed in round-bottomed microwells with an equal volume of effector cells at various E/T ratios. After 4 hours of incubation at 37° C., the plates were centrifuged at 2,000 g for 2 min, and cell-free supernatant were collected using a Luma Plate 96 cell harvester (Lulac-LSC). Supernatant radioactivity was assayed using an automated MicroBeta 1450 trilux γ-counter (Wallac). Spontaneous release was determined by incubating target cells in medium alone. Maximum release was determined by adding 0.1 ml of 1M HCl to the target cell suspension. The percentage of specific lysis was calculated as follows: 100×(experimental ^51Cr release−spontaneous release)/(maximum ^51Cr release−spontaneous ^51Cr release).

Data set [6] concerns IFN-γ production. Kind of data set: IFN-γ production. Type of data set: cell-based.
The target in data set [7] is T1, IL-2Rβ (Homo sapiens, UniProt P14784).
T1 sequence (P14784 27-551): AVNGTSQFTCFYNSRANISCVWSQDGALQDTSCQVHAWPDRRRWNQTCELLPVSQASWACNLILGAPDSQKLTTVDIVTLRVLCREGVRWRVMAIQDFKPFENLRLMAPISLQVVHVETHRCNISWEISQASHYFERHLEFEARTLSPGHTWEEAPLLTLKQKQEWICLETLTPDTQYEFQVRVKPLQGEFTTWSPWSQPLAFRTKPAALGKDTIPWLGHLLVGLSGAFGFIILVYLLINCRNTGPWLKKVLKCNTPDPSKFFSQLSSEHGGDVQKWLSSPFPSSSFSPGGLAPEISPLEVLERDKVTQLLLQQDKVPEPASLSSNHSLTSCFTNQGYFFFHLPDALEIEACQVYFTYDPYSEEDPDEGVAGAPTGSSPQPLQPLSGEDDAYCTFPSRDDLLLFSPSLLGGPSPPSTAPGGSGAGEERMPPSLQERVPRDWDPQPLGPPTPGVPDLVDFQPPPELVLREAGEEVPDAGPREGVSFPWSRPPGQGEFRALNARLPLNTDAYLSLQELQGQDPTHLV
The following applies: cited from earlier work.

Data set [8] has as its system classical murine cell lines (C30-1, CTLL, HT-2, . . . ). Briefly: IP130 effects on classical murine IL-2 assay cell lines. The class given is cell-based. The following applies: cells without human IL-2Rβ. An excerpt:
IP130 acts only on cell lines expressing human IL-2Rβ. […] Furthermore anti-human IL-2Rβ blocking mAb neutralizes the effects of IP130.

The test system of data set [9] is Kit 225 cell line. Kind of data set: Protein phosphorylation and c-myc induction in Kit 225 cell line. The class given is cell-based, human. The text has this: IP130 induces SHC protein phosphorylation. […] Kinetics of Shc phosphorylation is shown on the left. A Western blot of Shc protein is shown on the right.
Alone the peptide induces the phosphorylation of proteins on Kit 225 cell line. […] STAT-3 and STAT-5 are not activated after IP130 stimulation since IL-2Rγ is not involved in IP130 interaction with Kit 225.

Data set [10] can be described thus: Sedimentation-diffusion equilibrium, quaternary structure. The class given is physicochemical. Particulars: concentration above 5×10^−6M. An excerpt: The quaternary structure of peptide IP130 was also studied by sedimentation-diffusion equilibrium.
In data set [11] the test system is NK cells. Briefly: Cell cycle entry (S+G2/M) of NK cells in stimulated PBMC. The class given is cell-based, human. Here is the method:
Non-specific responses (J+1 in medium) are subtracted. NK cells entry into S+G2/M phases are measured by propidium iodide and analyzed with the ModFit 2.0 software (Becton Dickinson).

The subject of data set [12] is TS1 cells. Kind of data set: IP130 proliferation of TS1 cells with or without human IL-2Rβ. Type of data set: cell-based, murine. The following applies: with or without transfection by human IL-2Rβ gene.
Data set [13] deals with mAb H2-8. Kind of data set: ELISA inhibition of mAb H2-8 binding to IL-2 coated plates. Details: species or system mouse. The following applies: mAb at about 50% of maximum binding, preincubated with inhibitor. As to the method:
Control is represented by non coated plates.
H2-8 was preincubated with different peptides including five decapeptides (1-10, 5-15, 10-20, 15-25, 20-30).

For data set [14], the system named is STAT. Kind of data set: Electrophoretic mobility shift assay of STAT activation in KIT225 nuclear extracts. Type of data set: cell-based, human. Particulars: STAT-3 and STAT-5; β-casein, GAS and GIRE probes.

For “peptide 1-22: synthetic IL-2 peptide, residues 1-22 (APTSSSTKKTQLQLEHLLLDLQ; UniProt P60568 21-42, looked up, fragment)”, the α-helix content in [1] is 13%±5%. For the same substance, the “inhibition of the binding of mAb 19B11 to IL-2” value in data set [2] is on record as “inhibited”.
On to “IL-2 Pro125: IL-2 mutant IL-2 Pro125 (Cys→Pro) [reference compound]”, for which the “affinity for IL-2R” value in [3] is “slightly reduces the affinity”. The “maximum proliferation of TS1β” value in [4] (higher concentrations of mutant) is listed as “without affecting the maximum proliferation”.
For “IP131 Asp 20→Lys: Peptide 1-31 mutated at position 20 (Asp→Lys), SEQ ID NO:8 (APTSSSTKKTQLQLEHLLLKLQMILNGINNY)”, the “induction of LAK cells” value in data set [5] is listed as “capacity to generate LAK cells”. Moreover, the “induction of IFN-γ production” value in data set [6] is given as “induce IFN-γ production”. In addition, the “proliferation of TS1β induced by the peptide” value in data set [4] is reported as “maintains its inductive capacity on proliferation”.
For the substance “peptide 1-10: synthetic IL-2 decapeptide, residues 1-10 (APTSSSTKKT-NH2; UniProt P60568 21-30, looked up, fragment)”, the “inhibition of the binding of mAb 19B11 to IL-2” value in [2] is “inhibited”.
Regarding “IL2 Asp 20→Lys mutant: IL-2 with substitution Asp20 by Lys [reference compound]”, the “binding to IL-2Rβ” value in data set [7] is on record as “prevents binding to IL-2Rβ”. The “biological activity on Ts1β cells” value in [4] (5×10-3 to 10 nM, compared with IL-2 (FIG. 18)) is given as “clearly reduced”.
As to APTSSSTKKTQLQLEHLLLDLQMILNGINN [IP130], the “induction of LAK cells” value in [5] is recorded as “able to induce LAK cells in a concentration dependent manner; also recorded: potent LAK cell response”. Besides, the “LAK response compared with IL-2, day 3” value in data set [5] (day 3) was “weaker than that of IL-2”. Besides, the “LAK response compared with IL-2, day 6” value in data set [5] (day 6) is “comparable”. Moreover, the “induction of IFN-γ production” value in [6] was “ability to induce LAK cells and IFNγ production”. Moreover, in [8], the “sensitivity of classical murine cell lines to the peptide” value was “insensitive”. Besides, the c-myc induction result in [9] is on record as “observed”. Besides, the “phosphorylation of IL-2Rβ” value in data set [9] (immunoprecipitation, blotting with mAb 4G10 (anti-Ptyr)) was “phosphorylated IL-2Rβ is identified”. The “phosphorylation of Shc” value in data set [9] (peptide alone) was “the kinase Shc is easily recognized; also recorded: phosphorylated after a ten minute stimulation”. The quaternary structure entry in data set [10] was “most of the molecules are in a tetrameric form”. The “entry of NK cells into the cell cycle” value in data set [11] is “induces NK cells to enter into the cell cycle”. Besides, the “residues in an α helix configuration” value in data set [1] (20° C., phosphate buffer (20 mM, pH 7.2)) is recorded as 50%. Moreover, the α-helix content in [1] is recorded as 50%±7%. For the same substance, in data set [2], the “inhibition of the binding of mAb 19B11 to IL-2” value is listed as “inhibited”. In addition, in data set [4] (both activities at comparable concentrations), the “IC-50 of proliferation and of synergy with IL-2” value is “IC-50≅μM”. The “proliferation of TS1β induced by the peptide” value in data set [4] is recorded as “stimulates the proliferation”. Further, in data set [4] (in the presence of IL-2), the “synergy with IL-2 on TS1β proliferation” value is “strong synergy”. For the same substance, the “proliferation of TS1 cells in the presence of IP130” value in [12] is given as “TS1 cells only proliferate after transfection by the human IL-2Rβ gene”. Further, the “inhibition of the binding of mAb H2-8 to IL-2” value in [13] is listed as “most efficient inhibitor”. Also, the STAT activation result in data set [14] is on record as “not activated; also recorded: does not induce STAT activity”.
